The text below walks through data of patent US8993000B2, “Method for inducing differentiation of dental pulp cells into odontoblasts” (National University Corporation Okayama University, priority 2009, dated 2015).

In this experiment the test system is MEDP cells as a pulp-derived cell line. Put plainly: Dspp expression by PCR in cultured MEDP pulp-derived cells (induction of differentiation into odontoblasts). It is filed as cell-based. Particulars: for expression of Dspp (relative ratio of DSPP to GADPH amplification product): fibronectin-coated vessel; for expression of Dspp in a pulp-derived cell line: same technique as Example 1, addition concentration to be considered. The procedure:
In this example, MEDP cells as a pulp-derived cell line were cultured in a system including NaClO3, and the expression of Dspp in the cultured cells was confirmed. The expression of Dspp was confirmed by PCR.
The MEDP cells were cultured using a DMEM medium containing 10% v/v fetal bovine serum (FBS). The cells were suspended in the medium so that the number of the cells was 3.7×10^5 cells/ml, and 5 ml of the cell suspension were added to a culture vessel having a diameter of 6 cm and cultured. The culture was carried out using a culture vessel coated with fibronectin (FN) at 37±0.5° C. On day 1 of the culture, […] was added so that the final concentration was 50 mM or 100 mM, and the cells were cultured for an additional 7 days.
After mRNA had been extracted from the cultured cells using an RNeasy Mini Kit™ (manufactured by QIAGEN), reverse transcription was carried out using a PrimeScript™ Reverse Transcriptase (manufactured by TAKARA) to prepare cDNA, which was used as a sample for PCR. The extraction of mRNA and the preparation of cDNA were carried out in accordance with the manufacturer's instructions. Primers formed of base sequences set forth in SEQ ID NOS: 1 and 2 of the sequence listing were used as primers for amplification of DSPP, and primers formed of base sequences set forth in SEQ ID NOS: 3 and 4 of the sequence listing were used as primers for amplification of GADPH as a control gene. The PCR was carried out using a LightCycler™ (manufactured by Roche). The expression amount of DSPP was confirmed with a relative ratio between an amplification product of DSPP and an amplification product of GADPH.
A treatment for inducing differentiation was carried out by the same technique as that of Example 1 except that LiCl was used in place of NaClO3 and LiCl was added so that the final concentration was 5 mM or 50 mM on day 1 of the culture. Then, the expression of Dspp was confirmed.
A treatment for inducing differentiation was carried out by the same technique as that of Example 1 except that NaClO4 was used in place of NaClO3. Then, the expression of Dspp was confirmed.
A treatment for inducing differentiation is carried out by the same technique as that of Example 1 except that Norrin (R&D Systems, Inc.: catalog No.: 3014-NR) is used in place of NaClO3. Then, the expression of Dspp is confirmed. The addition concentration of Norrin is to be considered.
A treatment for inducing differentiation is carried out by the same technique as that of Example 1 except that R-Spondin2 (R&D Systems, Inc.: catalog No.: 3266-RS/CF) is used in place of NaClO3. Then, the expression of Dspp is confirmed. The addition concentration of R-Spondin2 is to be considered.

The mark [1] stands for this setting: 50 mM or 100 mM added on day 1, cultured additional 7 days.

With `[O-][Cl+3]([O-])([O-])O` [sodium perchlorate], the “expression of Dspp (relative ratio of DSPP to GADPH amplification product)” value under setting [1] is on record as “significantly enhanced”.

Regarding `[Na+].[O-][Cl+2]([O-])[O-]` [NaClO3, sodium chlorate], the “expression of Dspp (relative ratio of DSPP to GADPH amplification product)” value under setting [1] was “significantly enhanced”.

As to `[Cl-].[Li+]` [LiCl, lithium chloride], the “expression of Dspp (relative ratio of DSPP to GADPH amplification product)” value (5 mM or 50 mM added on day 1, cultured additional 7 days) is on record as “significantly enhanced”.

B1: R-Spondin2: protein capable of directly activating a Wnt signaling pathway (R&D Systems, catalog No. 3266-RS/CF) (protein, UniProt Q6UXX9 22-243, looked up)
R-spondin-2: QGNRWRRSKRASYVSNPICKGCLSCSKDNGCSRCQQKLFFFLRREGMRQYGECLHSCPSGYYGHRAPDMNRCARCRIENCDSCFSKDFCTKCKVGFYLHRGRCFDECPDGFAPLEETMECVEGCEVGHWSEWGTCSRNNRTCGFKWGLETRTRQIVKKPVKDTILCPTIAESRRCKMTMRHCPGGKRTPKAKEKRNKKKKRKLIERAQEQHSVFLATDRANQ
As to B1, the “expression of Dspp in a pulp-derived cell line” value is listed as “significantly enhances”.

B2: Norrin: protein capable of directly activating a Wnt signaling pathway (R&D Systems, catalog No. 3014-NR) (protein, UniProt Q00604 25-133, looked up)
Norrin: KTDSSFIMDSDPRRCMRHHYVDSISHPLYKCSSKMVLLARCEGHCSQASRSEPLVSFSTVLKQPFRSSCHCCRPQTSKLKALRLRCSGGMRLTATYRYILSCHCEECNS
Regarding B2, the “expression of Dspp in a pulp-derived cell line” value is reported as “significantly enhances”.
